Measured values: patent publication US7449461B2, “Benzathiazol-acetamides” (Hoffmann-La Roche Inc., priority 2004, dated 2008)

Tests used:
[1] = biological target: T1, human adenosine A2A receptor (Homo sapiens, UniProt P29274); test: [3H]-SCH-58261 binding assay on human adenosine A2A receptor membranes (SPA); details: recombinant receptor expressed in CHO cells, radioligand [3H]-SCH-58261 1 nM, Ki by Cheng-Prussoff equation from IC50; for Ki: read-out: hA2 (pKi) (converted)
T1 construct: expressed in transfected cells; host or cells: CHO cells, Semliki Forest virus expression system; washed membrane preparation
Method: Human Adenosine A2A Receptor
The human adenosine A2A receptor was recombinantly expressed in Chinese hamster ovary (CHO) cells using the semliki forest virus expression system. Cells were harvested, washed twice by centrifugation, homogenized and again washed by centrifugation. The final washed membrane pellet was suspended in a Tris (50 mM) buffer containing 120 mM NaCl, 5 mM KCl, 2 mM CaCl2 and 10 mM MgCl2 (pH 7.4) (buffer A). The [^3H]-SCH-58261 (Dionisotti et al., 1997, Br J Pharmacol 121, 353; 1 nM) binding assay was carried out in 96-well plates in the presence of 2.5 μg of membrane protein, 0.5 mg of Ysi-poly-1-lysine SPA beads and 0.1 U adenosine deaminase in a final volume of 200 μl of buffer A. Non-specific binding was defined using xanthine amine congener (XAC; 2 μM). Compounds were tested at 10 concentrations from 10 μM-0.3 nM. All assays were conducted in duplicate and repeated at least two times. Assay plates were incubated for 1 hour at room temperature before centrifugation and then bound ligand determined using a Packard Topcount scintillation counter. IC50 values were calculated using a non-linear curve fitting program and Ki values calculated using the Cheng-Prussoff equation.

T1 sequence (P29274 whole entry): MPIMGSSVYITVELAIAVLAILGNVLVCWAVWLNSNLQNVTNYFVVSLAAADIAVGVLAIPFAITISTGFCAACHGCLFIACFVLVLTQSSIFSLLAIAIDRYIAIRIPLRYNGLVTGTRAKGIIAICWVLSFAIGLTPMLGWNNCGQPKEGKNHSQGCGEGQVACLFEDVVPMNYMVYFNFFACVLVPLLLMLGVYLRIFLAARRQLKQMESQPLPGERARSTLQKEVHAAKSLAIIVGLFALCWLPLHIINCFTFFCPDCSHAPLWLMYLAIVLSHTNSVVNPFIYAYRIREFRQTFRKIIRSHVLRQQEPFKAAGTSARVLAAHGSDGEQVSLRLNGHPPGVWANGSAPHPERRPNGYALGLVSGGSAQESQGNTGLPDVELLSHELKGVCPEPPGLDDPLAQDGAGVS

Compound | Ki [1] [nM] | melting point [°C] | hA2 (pKi) [1]
COc1ccc(N2CCOCC2)c2sc(NC(=O)C(C)C34CCC(CC3)O4)nc12 (racemic) [Example 7, (rac)-N-(4-Methoxy-7-morpholin-4-yl-benzothiazol-2-yl)-2-(7-oxa-bicyclo[2.2.1]hept-1-yl)-propionamide] | 20 | 195 to 197 | 
COc1ccc(N2CCOCC2)c2sc(NC(=O)C[C@H]3CC[C@@H](OC(C)=O)C3)nc12 (single isomer, unassigned) [Example 1, (cis)-2-(3-Acetoxy-cyclopentyl)-N-(4-methoxy-7-morpholin-4-yl-benzothiazol-2-yl)-acetamide] | 10 | 171 to 172 | 
COc1ccc(N2CCOCC2)c2sc(NC(=O)C[C@H]3CC[C@@H](OC(C)=O)C3)nc12 (single isomer, unassigned) [Example 2, (cis)-2-(3-Acetoxy-cyclopentyl)-N-(4-methoxy-7-morpholin-4-yl-benzothiazol-2-yl)-acetamide] | 6.31 | 172 to 173 | 
COc1ccc(N2CCOCC2)c2sc(NC(=O)C[C@H]3CC[C@@H](O)C3)nc12 (single isomer, unassigned) [Example 3, (−)-(cis)-2-(3-Hydroxy-cyclopentyl)-N-(4-methoxy-7-morpholin-4-yl-benzothiazol-2-yl)-acetamide] | 6.31 | 168 to 171 | 

The next lines start with the values.

Ki [1] [nM] | melting point [°C] | hA2 (pKi) [1] | Compound
 | 167 to 170 | 8.2 | COc1ccc(N2CCOCC2)c2sc(NC(=O)C[C@H]3CC[C@@H](O)C3)nc12 (single isomer, unassigned) [Example 4, (+)-(cis)-2-(3-Hydroxy-cyclopentyl)-N-(4-methoxy-7-morpholin-4-yl-benzothiazol-2-yl)-acetamide]
6.31 | 212 to 216 |  | COc1ccc(N2CCOCC2)c2sc(NC(=O)C[C@H]3CC[C@@H](O)CC3)nc12 [Example 5, (cis)-2-(4-Hydroxy-cyclohexyl)-N-(4-methoxy-7-morpholin-4-yl-benzothiazol-2-yl)-acetamide]
3.16 | 190 to 192 |  | COc1ccc(N2CCOCC2)c2sc(NC(=O)C[C@H]3CC[C@H](O)CC3)nc12 [Example 6, (trans)-2-(4-Hydroxy-cyclohexyl)-N-(4-methoxy-7-morpholin-4-yl-benzothiazol-2-yl)-acetamide]
